Tests used:
Caco-2 cells = experiment: in vitro; conditions: Caco-2
in vitro = conditions: human, Caco-2, pH 7.4
[1] = target: T1, CXCR-4 transfected U87 cell line (U87.CXCR4) (Homo sapiens, UniProt P61073); experiment: Intracellular CXCL-12-induced calcium mobilization assay (FLIPR); assay type: cell-based; conditions: U87.CXCR4 cells; CXCL-12 25-50 ng/mL; compounds added 15 minutes before; read-out: IC50 CXCL-12 Ca2+ flux U87.CXCR4+
T1 construct: expressed in transfected cells; host or cells: U87 cell line (U87.CXCR4)
T1 sequence (P61073 whole entry): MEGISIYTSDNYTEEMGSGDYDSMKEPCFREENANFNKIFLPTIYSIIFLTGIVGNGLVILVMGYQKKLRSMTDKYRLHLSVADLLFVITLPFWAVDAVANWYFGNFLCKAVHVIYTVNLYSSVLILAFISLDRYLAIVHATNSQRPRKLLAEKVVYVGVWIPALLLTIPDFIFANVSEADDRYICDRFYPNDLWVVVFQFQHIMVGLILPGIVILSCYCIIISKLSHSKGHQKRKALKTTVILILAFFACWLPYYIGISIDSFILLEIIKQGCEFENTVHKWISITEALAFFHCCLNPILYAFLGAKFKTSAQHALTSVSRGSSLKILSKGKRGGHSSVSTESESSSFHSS

[2] = target: T2, Jurkat cells expressing CXCR4 (Homo sapiens, UniProt P61073); experiment: Chemokine (CXCL12-AF647) binding inhibition assay; conditions: CXCL12-AF647 25 ng/mL, read-out: IC50 CXCL-12 binding Jurkat
T2 construct: Jurkat cells expressing CXCR4; endogenous in cells; host or cells: Jurkat cells
T2 sequence (P61073 whole entry): as above

Row | permeability for Lucifer Yellow (Caco-2 cells) | Papp A→B at 90 min, 10 μM (in vitro) [×10⁻⁶ cm/s] | Papp B→A at 90 min, 10 μM (in vitro) [×10⁻⁶ cm/s] | efflux ratio at 90 min, 10 μM (in vitro) | IC50 [1] [nM] | IC50 [2] [nM] | Molecule
1 | low permeability |  |  |  |  |  | Lucifer Yellow [reference compound]
2 |  | 5 to 10 | > 10 | 0.1 to 10 | ≥ 1000 | 0.01 to 100 | COc1cccnc1CCN(Cc1ncccc1C)Cc1ncccc1C [Compound I-56]
3 |  | > 10 | > 10 | 0.1 to 10 | 100 to 1000 | 0.01 to 100 | OCCCN(Cc1nc2ccccc2[nH]1)[C@H]1CCCc2cccnc21 [Compound I-19]
4 |  | > 10 | > 10 | 0.1 to 10 | 0.01 to 100 | 0.01 to 100 | CC(c1ccccn1)N(CCc1ccccn1)Cc1nc2ccccc2[nH]1 (stereo not shown) [Compound I-2, N-((1H-benzo[d]imidazol-2-yl)methyl)-2-(pyridin-2-yl)-N-(1-(pyridin-2-yl)ethyl)ethanamine]
